Source: patent US20050038058A1, “Novel compounds and methods for therapy” (Institute of Organic Chemistry and Biochemistry, priority 2001, published 2005)
Values after ≈ are worked out from the molar mass of the structure shown.

Legend:
HIV-1(IIIB) = assay: HIV-1(IIIB)-induced cytopathicity in CEM cell cultures; assay type: cell-based; conditions: for EC50: Human immunodeficiency virus 1, CCRF-CEM, read-out: EC50 HIV-1 (CEM)
Description: Viruses. The origins of MSV, HIV type 1 (HIV-1) (strain IIIB and Ba-L), HIV-2 (strain ROD) and FIV (strain Petaluma) have been described previously (Balzarini et al., AIDS 5: 21-28, 1991; De Clercq et al., Proc. Soc. Exp. Biol. Med. 137:590-594, 1971; Egberink et al., Proc. Natl. Acad. Sci. 87:3087-3091, 1990; Hartmann et al., Antiviral Chem. Chemother. 5:13-19, 1994; Popovic et al., Science 224:497-500, 1984). HIV-1(IIIB) and HIV-2(ROD) stocks were obtained from supernatants of virus-infected MT-4 cell cultures. HIV-1BaL was expanded in human primary M/M, whose supernatants were collected, filtered and stored at −80° C. before use. Characteristics of viral stocks used for this study were 2.1×10^8 HIV-RNA genomes/ml (corresponding to 35 ng of p24 antigen) and 5,000 tissue culture infectious doses 50% per ml (TCID50/ml) as assessed by virus titration in other primary M/M cultures. The isolation and characterization of the clinical HIV-1 isolates L1S, L6S and L6S/PMEA has been reported (Thormar et al., Proc. Natl. Acad. Sci. USA 93:3283-3287, 1995; Van Laethem et al., AIDS 15:553-561, 2001). […] HIV-1/L6S/PMEA is the clinical isolate HIV-1/L6S that has been isolated after culturing the virus for 11 passages in the presence of increasing concentrations of PMEA (adefovir).
In vitro antiviral assays. The activity against HIV-1- and HIV-2-induced cytopathicity was examined in MT-4 cell cultures at day 5 post infection and based on the determination of cell viability by trypan blue dye staining or in CEM cell cultures at day 4 to 5 post infection and based on the microscopical examination of virus-induced giant cell formation. HIV-1 and HIV-2 were added at 100 CCID50 to the cell cultures.

[1] = Inhibition of CEM cell growth (cytostatic activity); assay type: cell-based; conditions: human, CEM cells, 50% cytostatic concentration, CEM cell proliferation; Table 1; read-out: CC50 (CEM)
Experimental: (§1) Cytostatic and antimetabolic effect of acyclic nucleoside phosphonates in vitro. The assays to examine the inhibition of CEM cell growth by the test compounds have been described previously (Balzarini et al., AIDS 5:21-28, 1991). The 50% cytostatic concentration (CC50) was defined as the concentration of compound that reduced the number of living cells by 50% . To measure MT-4 cell toxicity of the test compounds, 5×10^4 MT-4 cells were incubated in the wells of 96-well microplates in the presence or absence of different concentrations of the test compounds for 5 days at 37° C. The CC50 was then calculated from the number of living cells counted under a microscope by the trypan blue exclusion method.

CEM cells = assay: as above; assay type: cell-based; conditions: 50% cytostatic concentration, CEM cell proliferation; Table 1
Experimental: as §1

HSV-1 (KOS) = assay: Antiviral activity, HSV-1 (KOS), Table 1a; assay type: cell-based; conditions: Human alphaherpesvirus 1
HSV-2 (G) = assay: Antiviral activity, HSV-2 (G), Table 1a; assay type: cell-based; conditions: Human alphaherpesvirus 2
HSV-1 TK- VMW 1837 = assay: Antiviral activity, HSV-1 TK- VMW 1837, Table 1a; assay type: cell-based; conditions: Human alphaherpesvirus 1, read-out: Antiviral Activity EC50 HSV-1 TK- VMW 1837
CMV AD-169 = assay: Antiviral activity, CMV AD-169, Table 1a; assay type: cell-based; conditions: Human betaherpesvirus 5, AD169
CMV Davis = assay: Antiviral activity, CMV Davis, Table 1a; assay type: cell-based; conditions: Human betaherpesvirus 5
VZV TK + OKA = assay: Antiviral activity, VZV TK+ OKA, Table 1a; assay type: cell-based; conditions: Human alphaherpesvirus 3, read-out: Antiviral Activity EC50 VZV TK + OKA
VZV TK + YS = assay: Antiviral activity, VZV TK+ YS, Table 1a; assay type: cell-based; conditions: Human alphaherpesvirus 3
VZV TK − 07/1 = assay: Antiviral activity, VZV TK- 07/1, Table 1a; assay type: cell-based; conditions: Human alphaherpesvirus 3, read-out: Antiviral Activity EC50 VZV TK − 07/1
VZV TK − YS/R = assay: Antiviral activity, VZV TK- YS/R, Table 1a; assay type: cell-based; conditions: Human alphaherpesvirus 3, read-out: Antiviral Activity EC50 VZV TK − YS/R
MSV = assay: Antiviral activity, MSV, Table 1a; assay type: cell-based
HIV-2 = assay: Antiviral activity, HIV-2, Table 1a; assay type: cell-based; conditions: Human immunodeficiency virus 2
HIV-1 = assay: microbe, parasite or virus in culture; conditions: Human immunodeficiency virus 1, read-out: Antiviral Activity EC50 HIV-1
[2] = HIV-1(IIIB)-induced cytopathicity in CEM cell cultures, Table 1

SMILES | Antiretroviral (anti-HIV-1) activity in CEM cell cultures, in words (HIV-1(IIIB)) | EC50 (HIV-1(IIIB); [2]) | CC50 [1] | EC50 (HSV-1 (KOS)) | EC50 (HSV-2 (G)) | EC50 (HSV-1 TK- VMW 1837) | EC50 (CMV AD-169) | EC50 (CMV Davis) | EC50 (VZV TK + OKA) | EC50 (VZV TK + YS) | EC50 (VZV TK − 07/1) | EC50 (VZV TK − YS/R) | EC50 (MSV) | EC50 (HIV-2) | EC50 (HIV-1) | also measured
Nc1cc(OCCOCP(=O)(O)O)ncn1 [Compound 3, 4-amino-6-[2-(phosphonomethoxy)ethoxy]pyrimidine] | complete annihilation of the antiretroviral activity | > 100 µg/mL | > 100 µg/mL |  |  |  |  |  |  |  |  |  |  |  |  | 
Nc1nc(O)cc(SCCOCP(=O)(O)O)n1 [Compound 5, 2-amino-4-hydroxy-6-{[2-(phosphono-methoxy)ethyl]sulfanyl}pyrimidine] | completely inactive | > 100 µg/mL | > 100 µg/mL |  |  |  |  |  |  |  |  |  |  |  |  | 
CN(C)c1cc(OCCOCP(=O)(O)O)nc(N)n1 [Compound 6, 2-amino-4-dimethylamino-6-[2-(phosphonomethoxy)-ethoxy]pyrimidine] | complete annihilation of the antiretroviral activity | > 100 µg/mL | > 100 µg/mL |  |  |  |  |  |  |  |  |  |  |  |  | 
Nc1nc(NC2CC2)cc(OCCOCP(=O)(O)O)n1 [Compound 7, 2-amino-4-cyclopropylamino-6-[2-(phosphonomethoxy)ethoxy]pyrimi-dine] | complete annihilation of the antiretroviral activity |  |  |  |  |  |  |  |  |  |  |  |  |  |  | EC50 HIV-1 (CEM) (HIV-1(IIIB); [2]): >100 µg/mL; CC50 (CEM) (CEM cells): >100 µg/mL
CSc1nc(N)cc(OCCOCP(=O)(O)O)n1 [Compound 8, 4-amino-2-methylsulfanyl-6-[2-(phosphonomethoxy)ethoxy]pyrimidine] | complete annihilation of the antiretroviral activity | > 100 µg/mL | > 100 µg/mL |  |  |  |  |  |  |  |  |  |  |  |  | 
Cc1cc(OCCOCP(=O)(O)O)nc(N)n1 [Compound 9, 2-amino-4-methyl-6-[2-(phosphonomethoxy)ethoxy]pyrimidine] | complete annihilation of the antiretroviral activity | > 100 µg/mL | > 100 µg/mL |  |  |  |  |  |  |  |  |  |  |  |  | 
Nc1cc(OCCOCP(=O)(O)O)nc(N)n1 [Compound H-3404] |  |  |  | 6.5 µg/mL (≈ 24.6 µM) | 24 µg/mL (≈ 90.8 µM) | 9.6 µg/mL (≈ 36.3 µM) | > 50 µg/mL | > 50 µg/mL | 1.2 µg/mL | 1.1 µg/mL | 2.5 µg/mL (≈ 9.46 µM) | 1.6 µg/mL (≈ 6.06 µM) | 0.035 ± 0.002 µg/mL (≈ 0.132 µM) | 0.43 ± 0.32 µg/mL (≈ 1.63 µM) | 0.8 µg/mL (≈ 3.03 µM) | 
Nc1cc(SCCOCP(=O)(O)O)nc(N)n1 [Compound H-3408] |  |  |  | 29 µg/mL (≈ 103 µM) | ≥ 80 µg/mL | 48 µg/mL (≈ 171 µM) | > 50 µg/mL | > 50 µg/mL | 7.5 µg/mL | 7 µg/mL | 20 µg/mL (≈ 71.4 µM) | 15 µg/mL (≈ 53.5 µM) | 1.7 µg/mL (≈ 6.07 µM) | 3 ± 1.4 µg/mL (≈ 10.7 µM) | 5.5 ± 2.1 µg/mL (≈ 19.6 µM) | 
Nc1cc(OCCOCP(=O)(O)O)ncn1 [Compound H-3418] |  |  |  | > 16 µg/mL | > 16 µg/mL | > 16 µg/mL | > 50 µg/mL | > 50 µg/mL | > 50 µg/mL | > 50 µg/mL | > 50 µg/mL | > 50 µg/mL | 12.6 ± 7.6 µg/mL (≈ 50.6 µM) | > 100 µg/mL | > 100 µg/mL | 
CN(C)c1cc(OCCOCP(=O)(O)O)nc(N)n1 [Compound H-3427] |  |  |  | > 400 µg/mL | > 400 µg/mL | > 400 µg/mL | > 50 µg/mL | > 50 µg/mL | > 50 µg/mL | > 50 µg/mL | > 50 µg/mL | > 50 µg/mL | 139 ± 11 µg/mL (≈ 476 µM) | > 100 µg/mL | > 100 µg/mL | 
Nc1nc(NC2CC2)cc(OCCOCP(=O)(O)O)n1 [Compound H-3435] |  |  |  | 240 µg/mL (≈ 789 µM) | > 80 µg/mL |  | > 50 µg/mL | > 50 µg/mL | > 20 µg/mL | > 50 µg/mL | > 50 µg/mL | > 50 µg/mL | > 40 µg/mL | > 100 µg/mL | > 100 µg/mL | 
Nc1nc(OCCOCP(=O)(O)O)cc(OCCOCP(=O)(O)O)n1 [Compound H-3444] |  |  |  | 240 µg/mL (≈ 595 µM) | > 400 µg/mL |  | > 50 µg/mL | > 50 µg/mL | > 50 µg/mL | > 50 µg/mL | > 50 µg/mL | > 50 µg/mL | 4.26 ± 0.75 µg/mL (≈ 10.6 µM) | 80 ± 34.6 µg/mL (≈ 198 µM) | 56.7 ± 37.9 µg/mL (≈ 141 µM) | 
Nc1nc(OCCOCP(=O)(O)O)cc(=O)n1CCOCP(=O)(O)O [Compound H-3445] |  |  |  | > 400 µg/mL | > 400 µg/mL | > 400 µg/mL | > 50 µg/mL | > 50 µg/mL | > 50 µg/mL | > 50 µg/mL | > 50 µg/mL | > 50 µg/mL | 107 ± 10 µg/mL (≈ 265 µM) | > 100 µg/mL | > 100 µg/mL | 
Nc1nc(O)cc(OCCOCP(=O)(O)O)n1 [Compound H-3574] |  |  |  | 9.6 µg/mL (≈ 36.2 µM) | 9.6 µg/mL (≈ 36.2 µM) |  | 14 µg/mL (≈ 52.8 µM) | 16 µg/mL (≈ 60.3 µM) | 1.1 µg/mL | 0.9 µg/mL |  | 0.6 µg/mL (≈ 2.26 µM) | 0.08 µg/mL (≈ 0.302 µM) |  | > 0.8 µg/mL | 
Nc1nc2c(ncn2CCOCP(=O)(O)O)c(=O)[nH]1 [PMEG, reference compound] |  |  |  |  |  |  |  |  |  |  |  |  |  |  |  | EC50 as such (HIV-1(IIIB); HIV-1 (IIIB) in CEM, no addition, Table 3): >0.05 µg/mL; EC50 upon addition of Ade (100 μM) (HIV-1(IIIB); HIV-1 (IIIB) in CEM, Ade 100 μM): >0.05 µg/mL; EC50 upon addition of Ado (400 μM) (HIV-1(IIIB); HIV-1 (IIIB) in CEM, Ado 400 μM): >0.05 µg/mL; EC50 upon addition of Guo (10 μM) (HIV-1(IIIB); HIV-1 (IIIB) in CEM, Guo 10 μM): >0.05 µg/mL; EC50 upon addition of dCyd (1 mM) (HIV-1(IIIB); HIV-1 (IIIB) in CEM, dCyd 1 mM): >0.25 µg/mL; EC50 upon addition of dThd (10 μM) (HIV-1(IIIB); HIV-1 (IIIB) in CEM, dThd 10 μM): >0.25 µg/mL
